Results as given in the COVID Moonshot data (paper PMC11187573), “Identification of SARS-CoV-2 Mpro inhibitors through deep reinforcement learning for de novo drug design and computational chemistry approaches” (RSC Medicinal Chemistry, 2024).

Experiments:
[1] = target: SARS-CoV-2 Main Protease (SARS-CoV-2) (UniProt P0DTD1)
[2] = target: SARS-CoV-2 Main Protease (SARS-CoV-2) (UniProt P0DTD1); remark: listed apart in the source

SMILES | inhibition ([1]; 50.0 µM) | inhibition ([2]; 20.0 µM) | inhibition ([2]; 50.0 µM) | relative solubility at 20 uM | relative solubility at 100 uM | IC50 [1] | IC50 [2] | inhibition ([1]; 20.0 µM)
Cc1ccncc1NC(=O)CCNC(=O)c1ccccc1F | -15.8% | 0% | 0% | 1 | 1 | – | – | –
Cc1cccc(NC(=O)C(C#N)C(=O)C2CCC2)c1 (centres undefined) | 1.6% | 0.951% | 0% | 0.99 | 0.99 | – | – | –
O=C(CCl)N1CCN(Cc2cccc(Cl)c2)CC1 | 108% | 99.8% | 100% | 1 | 1 | 2.54 µM | 0.545 µM | –
O=C(CC(=O)Nc1ccncc1)Nc1ccccc1 | 12% | 0% | 0% | 1 | 1 | – | – | –
O=C(c1ccccc1)N1CCN(C(=O)c2nn(-c3ccccc3C(F)(F)F)cc2O)CC1 | -1.44% | – | 0% | 0.99 | 0.95 | – | – | -48%
Cc1ccncc1NC(=O)C(C)c1cccc(C#N)c1 (centres undefined) | 61.4% | 21% | 58.4% | 1 | 1 | – | 45.3 µM | 35.4%
Cc1nc(CCn2c(C3CCC(=O)N3)nnc2N2CCOC(C)(C)C2)n[nH]1 (centres undefined) | 2.23% | – | 4.69% | 1 | 1 | – | – | -0.233%
NS(=O)(=O)c1ccc(N2CCC(c3ccsc3)CC2)cc1 | 17.1% | 37.4% | 42% | 0.98 | 0.76 | – | – | 7.4%
O=C(C(F)Cl)N1CCCC(c2nc3ccccc3s2)C1 (centres undefined) | 16.2% | 0% | 0% | 0.99 | 0.99 | – | – | 7.1%
O=C1CC[C@@H](C(=O)Nc2cccc(Cl)c2)CN1 (stereo in doubt) | -3.68% | – | -12% | 1 | 1 | – | – | -24%
CN(C)c1ncccc1N(C)C(=O)C1CCOc2ccc(Cl)cc21 (centres undefined) | -4.96% | – | 0% | 1 | 0.99 | – | – | 1.42%
COc1ccccc1OCCNC(=O)c1cc(=O)[nH]c2ccc(Cl)cc12 | 34.1% | – | 23% | 0.93 | 0.66 | – | – | -2.31%
C=CC(=O)N(c1cc(C(C)(C)C)on1)C(C(=O)Nc1ccc(OC)cc1C)c1cccnc1 (centres undefined) | 23.4% | 14.3% | – | 1 | 0.91 | – | – | 12.9%
CC(=O)N1CCN(C(=O)Cc2ccccn2)CC1 | 3.52% | 0% | 0% | 1 | 1 | – | – | -0.517%
O=C(Nc1cccc(C(=O)N2CCSCC2)c1)C(F)Cl (centres undefined) | -16.9% | 0% | 0% | 1 | 1 | – | – | -13.8%
CCc1ccccc1Nc1nc(N)nc(CSc2nnc3ccccn23)n1 | 46.6% | -0.805% | 3.37% | 0.99 | 0.95 | – | – | 20.9%
C=CC(=O)N(c1ccc(N2CCC2)cc1)C(C(=O)NC(C)(C)C)c1cccnc1 (centres undefined) | -17.3% | 0% | – | 0.97 | 0.93 | – | – | -18.5%
O=C(C1CCN(c2ccncc2)CC1)N1CCS(=O)(=O)CC1 | -27.4% | 19.7% | 42.9% | 1 | 1 | – | – | –
O=C(c1cc(=O)[nH]c2ccccc12)N1CCN(c2ccccc2)CC1 | 54.1% | 66.6% | 78.8% | 1 | 1 | – | 10.4 µM | –
N#Cc1cccc(C2CN(C(=O)CCl)Cc3ccccc32)c1 (centres undefined) | 95.3% | – | – | 1 | 0.99 | – | – | 98.8%
O=C(/C=C/C=C/c1ccc2c(c1)OCO2)N1CCCCC1 | – | 0% | – | 1 | 0.97 | – | – | –
CNc1ccc(N(Cc2ccsc2)C(=O)Cn2nnc3ccccc32)cc1 | 82.6% | – | – | 0.99 | 0.77 | – | – | 57.1%
O=C(Nc1cnccc1CO)C1CCOc2ccc(Cl)cc21 (centres undefined) | – | – | – | 0.94 | 0.93 | – | – | –
C=CC(=O)N1CC(NCC2=CNC3C=CC(C#N)=CC23)C1 (centres undefined) | – | – | – | 1 | 0.95 | – | – | –
Cc1nnc(NC(=O)[C@@H]2COc3ccc(Cl)cc32)n1C1CC1 (stereo in doubt) | – | – | – | 1 | 1 | – | – | –

SMILES | inhibition ([1]; 50.0 µM) | inhibition ([2]; 20.0 µM) | inhibition ([2]; 50.0 µM) | relative solubility at 20 uM | relative solubility at 100 uM | IC50 [1] | IC50 [2] | inhibition ([1]; 20.0 µM)
Cc1nnc(NC(=O)C2COc3ccc(Cl)cc32)n1C1CC1 (centres undefined) | -2.41% | – | 0% | – | – | – | – | -63.2%
O=[N+]([O-])c1cnc(Sc2nnc(-c3ccc(Cl)cc3)o2)s1 | 71.2% | – | – | – | – | – | 0.319 µM | 28.9%
O=C(CCl)N1CCN(Cc2ccsc2)CC1 | 99.4% | – | – | 1 | 0.99 | – | – | 98.8%
C=CC(=O)N1CCN(S(C)(=O)=O)CC1c1ccccc1 (centres undefined) | 2.89% | – | 0% | – | – | – | – | -0.438%
C=CC(=O)N(c1ccc(C(C)(C)C)cc1)C(C(=O)NCCc1cccc(F)c1)c1cncc(O)c1 (centres undefined) | 23.5% | – | – | – | – | – | 26.2 µM | 16.1%
O=C(CCl)N1CCN(Cc2cccs2)CC1 | 99% | – | – | 1 | 1 | – | – | 94.5%
c1ccc(-c2cc(Sc3nnc(-c4cccs4)o3)n3ncnc3n2)cc1 | 96.7% | – | – | – | – | – | 0.152 µM | 47.1%
Cc1ccc(OCCN2C(=O)C(=O)c3cccc(Cl)c32)cc1 | 5.65% | – | 77% | – | – | – | 2.15 µM | 0.316%
O=C1Nc2cc(N3CCCC3)ccc2C1=O | 37.3% | – | 0% | – | – | – | – | 7.46%
COc1ccccc1OCC(C)NC(=O)c1cc(=O)[nH]c2ccc(F)cc12 (centres undefined) | 59.3% | – | 40.1% | – | – | – | – | 42%
C=CC(=O)N(c1ccc(C(F)(F)F)cc1)C(C(=O)NCCc1cccc(F)c1)c1cncc(O)c1 (centres undefined) | 44.9% | – | – | – | – | – | 17.3 µM | 26.8%
C=CC(=O)N(c1ccc2c(c1)C=CCCC2)C(C(=O)NC(C)(C)C)c1cccnc1 (centres undefined) | 25.9% | – | 0% | – | – | – | – | 12.4%
O=C(Cc1ccc(Cl)c(Cl)c1)Nc1cncc2ccccc12 | – | – | – | – | – | 0.261 µM | 0.132 µM | –
Cc1ccncc1NC(=O)Cc1cccc(Cl)c1 | – | – | – | 1 | 1 | – | – | –
CCn1c(CSc2nc(C)c(C)n2CC2CCCO2)nc2cc(S(=O)(=O)N(C)C)ccc21 (centres undefined) | -3.59% | – | – | 0.85 | 0.84 | – | – | -23.6%
O=C(Nc1cccc(C(F)(F)F)c1)Nc1ccccc1Sc1ncc([N+](=O)[O-])s1 | 76.3% | – | – | – | – | – | 0.219 µM | 55.9%
N#CCCCOC(=O)c1cccc2c1NC(=O)C2=O | -1.22% | – | 0% | – | – | – | – | -3.65%
Cc1ccncc1NC(=O)C[C@H](c1ccccc1)N1CCC(O)CC1 (stereo in doubt) | 34.5% | – | – | – | – | – | 67.5 µM | 6.5%
CNC(=O)c1cc(Cl)cc(CC(=O)Nc2cnccc2C)c1 | – | – | – | – | – | 51.5 µM | 43.9 µM | –
C=CC(=O)N(c1ccc(C(F)(F)F)cc1)C(C(=O)Nc1ccc(OC)cc1)c1cccnc1 (centres undefined) | 60.7% | 60% | – | – | – | – | – | 40.3%
O=C(NCc1cccnn1)Nc1cccc(-c2ncc3n2CCCC3)c1 | -5.29% | – | 0% | – | – | – | – | -2.92%
CS(=O)(=O)N1CCc2ccc(CN3CCN(C(=O)CCl)CC3)cc2C1 | 62.5% | – | 71.8% | – | – | – | 38.4 µM | 29.9%
O=C(Cc1ccsc1)N1CCN(c2cc(-c3cccs3)n[nH]2)CC1 | 42.2% | – | – | – | – | – | 78.2 µM | 13.1%
COc1cccc(C(=O)Nc2n[nH]c(SCc3ccc(Cl)cc3)n2)c1 | 32.5% | – | – | – | – | – | 0.2 µM | 8.77%
CCOC(=O)c1c(C)n(S(C)(=O)=O)c2ccc(N(C(=O)c3ccco3)S(C)(=O)=O)cc12 | 98.6% | – | – | – | – | – | 0.147 µM | 67.5%

SMILES | inhibition ([1]; 50.0 µM) | inhibition ([2]; 20.0 µM) | inhibition ([2]; 50.0 µM) | relative solubility at 20 uM | relative solubility at 100 uM | IC50 [1] | IC50 [2] | inhibition ([1]; 20.0 µM)
COc1ccccc1OC1CCCN(C(=O)c2c(C)c(=O)[nH]c3ccccc23)C1 (centres undefined) | -1.13% | – | 0% | – | – | – | – | -2.54%
O=C(CCl)N1CCN(Cc2cnc(Cc3ccccc3)s2)CC1 | 51.6% | – | 97.6% | – | – | – | 34.6 µM | 41.5%
COc1cccc(CNC(=O)N2CCN(C(=O)N3CCCCC3)CC2)c1 | -0.332% | – | 0% | – | – | – | – | -3.31%
COc1cc(OC)cc(Oc2ccc(CNC(=O)Cn3nnc4ccccc43)cc2)c1 | 17.3% | – | 0% | – | – | – | – | 4.58%
O=C(CCl)N1CCN(Cc2cc(O)cc(Cl)c2)CC1 | 89.5% | 92.7% | 98.9% | – | – | – | 1.57 µM | 75%
Cc1cn2c(-c3cccnc3)c(-c3ccc(F)cc3)nc2s1 | 1.34% | – | 31.5% | – | – | – | – | -2.02%
O=C(Cc1cc(Cl)cc2c1OCC2)Nc1cncc2ccccc12 | – | – | 78.3% | – | – | 1.45 µM | 0.492 µM | –
O=C(CCl)N1CCN(Cc2cnc(-c3ccccc3)nc2)CC1 | 15.7% | – | 0% | – | – | – | – | 6.18%
CC(C(=O)Nc1cnccc1O)c1ccccc1 (centres undefined) | 0.74% | – | 0% | – | – | – | – | 0.187%
O=C(CCl)Nc1cccc(N2CCCC2=O)c1 | 51.4% | – | – | 1 | 1 | – | – | 27.1%
O=C(Nc1nncn1C1CC1)C1CCS(=O)(=O)c2ccccc21 (centres undefined) | 74.6% | – | – | – | – | – | 26.8 µM | 37.6%
C=CC(=O)N(C(C)COc1cccc(F)c1)C(C(=O)NC(C)(C)C)c1cccnc1 (centres undefined) | -5.54% | – | 0% | – | – | – | – | -1.52%
CCC(=O)Nc1ccc(N(Cc2ccsc2)C(=O)Cn2nnc3ccccc32)cc1 | 89.3% | – | 78.1% | – | – | – | – | 79.7%
Cc1ncccc1NC(=O)Cc1cccc(Cl)c1 | -3.9% | – | 0% | – | – | – | – | -4.59%
COc1cc(Cl)cc(OC(=O)Nc2cccnc2)c1 | – | – | – | 1 | 1 | – | – | –
Cc1ccncc1NC(=O)Cc1cc(Cl)cc(OC2CC(=O)N2)c1 (centres undefined) | – | – | – | 0.99 | 1 | – | – | –
N#C/C(C(=O)Nc1ccc(F)cc1)=C(/O)c1ccc(Cl)cc1 | 22.2% | – | 100% | – | – | – | 0.234 µM | –
O=S(=O)(Cc1nc(-c2ccncc2)no1)Nc1ccc(N2CCCCC2)cc1 | 2.66% | – | 0% | – | – | – | – | 3.34%
COC(=O)c1c(C)n(S(C)(=O)=O)c2ccc(N(C(=O)c3ccco3)S(C)(=O)=O)cc12 | 97.8% | – | – | – | – | – | 0.335 µM | 47.7%
Cc1cnc2c(-c3ccc4[nH]ncc4c3)c(-c3ccc(F)cc3)nn2c1 | -1% | – | 34.7% | – | – | – | – | -1.68%
N#Cc1ccc(CN2C(=O)C(=O)c3cccc(Br)c32)c(F)c1 | -0.391% | – | 72.1% | – | – | – | 14.3 µM | -1.68%
COc1ccccc1OCCNC(=O)c1cc(=O)[nH]c2cccc(C)c12 | 96.4% | – | 89.7% | – | – | – | 2.6 µM | 91.8%
CC(C)C[C@H](NC(=O)OCc1ccccc1)C(=O)N[C@H](C(=O)NCC(=O)C=[N+]=[N-])C(C)C (stereo in doubt) | 11.5% | – | 15.3% | – | – | – | – | –
Cc1ccccc1NC(=O)CC1SC(=O)N(c2ccccc2)C1=O (centres undefined) | 94.9% | – | – | – | – | – | 0.658 µM | 92.6%
